Laboratory results reported in patent publication EP1717249A1, “Peptides containing a cholesterol recognition sequence and their uses” (GEORGETOWN UNIVERSITY, priority 1998, dated 1999).

Columns and labels:
[1] = test system: isolated mitochondria; conditions: cited from earlier work
[2] = biological target: T1, PBR (Mus musculus, UniProt P50637); test: Ligand-induced release of 3H-cholesterol from membranes of IPTG-induced transformed bacteria; type: biochemical; conditions: cholesterol-loaded bacterial membranes (Fig. 3F)
T1 construct: made in house; host or cells: Escherichia coli BL21(DE3), IPTG-induced
Description: ^3H-Cholesterol uptake by E. coli cells was examined using the indicated concentrations of control or IPTG-treated transformed bacteria incubated in the presence of 6.7 nM ^3H-cholesterol (50.0 Ci/mmol) for 60 min at 37°C. Specific cholesterol uptake is defined as IPTG-induced minus basal values.

[3] = biological target: T2, recombinant mPBR (Mus musculus, UniProt P50637); test: 3H-PK 11195 radioligand binding to recombinant PBR (wild-type and mutated) expressed in IPTG-induced E. coli; conditions: 3H-PK 11195 binding to IPTG-induced bacteria expressing mouse PBR, Scatchard analysis
T2 construct: made in house; host or cells: Escherichia coli BL21(DE3), IPTG-induced
Excerpt: Construction of the mouse PBR expression vector (pET15bPBR) and Expression of Recombinant PBR in bacteria- The pET system (Novagen, Madison, WI) was used to express the MA-10 mouse PBR (mPBR) recombinant protein. […] This mPBR fragment was inserted into pET15b vector and linearized with NdeI and XhoI downstream of the T71ac promoter. Recombinant mPBR expression vector was used to transform the BL21(DE3) Escherichia coli strain (Novagen) where the expression of recombinant mPBR protein was induced by 1mM isopropyl-1-thiol-β-D-galactopyranoside (IPTG). PBR protein expression was monitored by SDS-PAGE followed by Coomassie Blue staining or immunoblot analysis using anti-PBR antiserum (Amri et al. 1996, supra). Binding specificity of the IPTG-induced PBR in E. coli was determined in binding studies where specific binding of ^3H-PK 11195 (1.0 nM) was measured in the presence of the indicated concentrations of the indicated ligands.
Radioligand binding assays- ^3H-1-(2-chlorophenyl)-N-methyl-N-(1-methyl-propyl)-3-isoquinolinecarboxamide (PK 11195) binding studies were performed as we previously described (Papadopoulos, V. et al. 1990, J. Biol. Chem. 265: 3772-3779; Garnier, M. et al. 1994, Mol. Pharm. 45:201-211). […]

Compound | intramitochondrial cholesterol transport and pregnenolone formation (mitochondrial steroidogenesis) [1] | 3H-cholesterol released from cholesterol-loaded bacterial membranes [2] | Bmax [3]
TTN: naturally occurring processing product of DBI, the triakontatetrapeptide TTN (DBI17-50) (KTKPSDEEMLFIYGHYKQATVGDINTERPGMLDF; Triakontatetraneuropeptide; UniProt P07108 17-50, looked up, fragment) | able to mimic the effect of DBI |  | 
CCC(C)N(C)C(=O)c1cc2ccccc2c(-c2ccccc2Cl)n1 (stereo not drawn) [PK 11195, 1-(2-chlorophenyl)-N-methyl-N-(1-methyl-propyl)-3-isoquinolinecarboxamide] |  | cholesterol was liberated from the membranes | 0.23 pmol/mg protein
